Laboratory results: patent US7501440B2, “Substituted benzoylureidopyridylpiperidine-and-pyrrolidinecarboxylic acid derivatives, processes for preparing them and their use” (Sanofi-Aventis Deutschland GmbH, priority 2003, dated 2009)

Molecular target: T1, human glycogen phosphorylase a (Homo sapiens, UniProt P06737)
T1 sequence (P06737 1-847): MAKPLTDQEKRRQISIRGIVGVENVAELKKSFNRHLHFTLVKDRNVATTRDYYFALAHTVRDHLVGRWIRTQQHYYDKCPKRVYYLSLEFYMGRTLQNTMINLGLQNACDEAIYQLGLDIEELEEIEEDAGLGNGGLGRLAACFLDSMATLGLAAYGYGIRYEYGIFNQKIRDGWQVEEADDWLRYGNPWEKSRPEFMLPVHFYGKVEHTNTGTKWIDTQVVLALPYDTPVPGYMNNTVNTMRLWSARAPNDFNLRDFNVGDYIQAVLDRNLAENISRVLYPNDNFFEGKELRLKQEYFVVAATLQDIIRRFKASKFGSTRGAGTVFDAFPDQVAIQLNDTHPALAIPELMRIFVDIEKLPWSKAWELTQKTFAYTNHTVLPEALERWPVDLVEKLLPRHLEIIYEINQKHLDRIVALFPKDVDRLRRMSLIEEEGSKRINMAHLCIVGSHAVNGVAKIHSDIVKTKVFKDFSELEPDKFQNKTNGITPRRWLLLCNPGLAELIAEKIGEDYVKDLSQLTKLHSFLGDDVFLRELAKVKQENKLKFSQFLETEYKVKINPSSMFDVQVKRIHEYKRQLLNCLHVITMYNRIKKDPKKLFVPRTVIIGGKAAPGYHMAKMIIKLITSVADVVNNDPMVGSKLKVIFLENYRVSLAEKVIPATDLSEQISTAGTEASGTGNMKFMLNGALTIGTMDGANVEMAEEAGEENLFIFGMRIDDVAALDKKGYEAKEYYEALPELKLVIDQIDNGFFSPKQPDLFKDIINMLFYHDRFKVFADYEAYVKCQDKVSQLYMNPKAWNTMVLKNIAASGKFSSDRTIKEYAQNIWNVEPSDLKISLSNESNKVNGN
Experiment: Glycogen phosphorylase a activity test
Assay type: biochemical
Details: inhibition of GPa in vitro, reverse direction (glycogen synthesis from glucose 1-phosphate, release of inorganic phosphate)
Description: Glycogen Phosphorylase a Activity Test
The effect of compounds on the activity of the active form of glycogen phosphorylase (GPa) was measured in the reverse direction by monitoring the synthesis of glycogen from glucose 1-phosphate by determining the release of inorganic phosphate. All reactions were carried out as duplicate determinations in 96-well microtiter plates (half area plates, Costar No. 3696), and the change in absorption as a consequence of the formation of the reaction product was measured at the wavelength specified below in a Multiskan Ascent Elisa Reader (Lab Systems, Finland). In order to measure the GPa enzyme activity in the reverse direction, the conversion of glucose 1-phosphate to glycogen and inorganic phosphate was measured by the general method of Engers et al. (Engers H D, Shechosky S, Madsen N B, Can J Biochem 1970 July; 48(7):746-754) with the following modifications: human glycogen phosphorylase a (for example containing 0.76 mg of protein/ml (Aventis Pharma Deutschland GmbH), dissolved in buffer solution E (25 mM β-glycerophosphate, pH 7.0, 1 mM EDTA and 1 mM dithiothreitol) was diluted to a concentration of 10 μg of protein/ml with buffer T (50 mM Hepes, pH 7.0, 100 mM KCI, 2.5 mM EDTA, 2.5 mM MgCl2·6H2O) and addition of 5 mg/ml of glycogen. Test substances were prepared as a 10 mM solution in DMSO and diluted to 50 μM with buffer solution T. To 10 μl of this solution were added 10 μl of 37.5 mM glucose dissolved in buffer solution T and 5 mg/ml of glycogen, and also 10 μl of a solution of human glycogen phosphorylase a (10 μg of protein/ml) and 20 μl of 2.5 mM glucose 1-phosphate. The base value of the activity of glycogen phosphorylase a in the absence of test substance was determined by adding 10 μl of buffer solution T (0.1% DMSO). The mixture was incubated at room temperature for 40 minutes and the released inorganic phosphate was determined by means of the general method of Drueckes et al. (Drueckes P, Schinzel R, Palm D, Anal Biochem 1995 September 1;230(1):173-177) with the following modifications: 50 μl of a stop solution of 7.3 mM of ammonium molybdate, 10.9 mM of zinc acetate, 3.6% of ascorbic acid, 0.9% of SDS are added to 50 μl of the enzyme mixture. After 60 minutes of incubation at 45° C., the absorption was measured at 820 nm. To determine the background absorption, the stop solution was added immediately after the addition of the glucose 1-phosphate solution in a separate reaction. […]

SMILES	IC50 [nM]
O=C(NC(=O)c1ccc(F)cc1Cl)Nc1cccnc1N1CCC(C(=O)O)CC1 [Example 1, 3′-[3-(2-Chloro-4-fluorobenzoyl)ureido]-3,4,5,6-tetrahydro-2H-[1,2′]bipyridinyl-4-carboxylic acid]	40
O=C(NC(=O)c1cc(F)c(F)cc1Cl)Nc1cccnc1N1CCC(C(=O)O)CC1 [Example 2, 3+-[3-(2-Chloro-4,5-difluorobenzoyl)ureido]-3,4,5,6-tetrahydro-2H-[1,2′]bipyridinyl-4-carboxylic acid]	10

The next lines start with the values.

IC50 [nM]	SMILES
160	NC(=O)C1CCN(c2ncccc2NC(=O)NC(=O)c2cc(F)c(F)cc2Cl)CC1 [Example 4, 3′-[3-(2-Chloro-4,5-difluorobenzoyl)ureido]-3,4,5,6-tetrahydro-2H-[1,2′]bipyridinyl-4-carboxamide]
3650	O=C(NC(=O)c1cc(F)c(F)cc1Cl)Nc1cccnc1N1CCC(C(=O)NCCO)CC1 [Example 5, N-(2-hydroxyethyl)-3′-[3-(2-chloro-4,5-difluorobenzoyl)ureido]-3,4,5,6-tetrahydro-2H-[1,2′]bipyridinyl-4-carboxamide]

System: not given
Experiment: not given
Details: not given

melting point [°C]	SMILES
195.9	COC(=O)C1CCN(c2ncccc2NC(=O)NC(=O)c2cc(F)c(F)cc2Cl)CC1 [Example 3, Methyl 3′-[3-(2-chloro-4,5-difluorobenzoyl)ureido]-3,4,5,6-tetrahydro-2H-[1,2′]bipyridinyl-4-carboxylate]
250.9	O=C(NC(=O)c1cc(F)c(F)cc1Cl)Nc1cccnc1N1CCC(C(=O)O)(c2ccccc2)CC1 [Example 6, 3′-[3-(2-Chloro-4,5-difluorobenzoyl)ureido]-4-phenyl-3,4,5,6-tetrahydro-2H-[1,2′]bipyridinyl-4-carboxylic acid]
